Reference: patent publication US7635779B2, “Oxy substituted flavones as antihyperglycemic and antidyslipidemic agents” (Council of Scientific & Industrial Research, priority 2004, dated 2009)
Like-named read-outs stand apart in the source and are kept apart here.

Columns and labels:
sucrose loaded rat = test: Sucrose loaded rat model (SLM), antihyperglycemic activity; type: in vivo; conditions: for inhibition in vivo at 100 mg/kg: Rattus norvegicus, po, 2 h, read-out: % Fall in blood glucose levels, SLM; for % Fall in blood glucose levels, SLM: 100 mg/kg oral, AUC vs control
Description: Male albino rats of Charles Foster/Wistar strain of average body weight 160±20 g were selected for this study. The blood glucose level of each animal was checked by glucometer using glucostrips (Boehringer Mannheim) after 16 h starvation. Animals showing blood glucose levels between 3.33 to 4.44 mM (60 to 80 mg/dl) were divided into groups of five to six animals in each. Animals of experimental group were administered suspension of the desired synthetic compound orally (made in 1.0% gum acacia) at a dose of 100-mg/kg-body weight. Animals of control group were given an equal amount of 1.0% gum acacia. A sucrose load (10.0 g/kg) was given to each animal orally exactly after 30 min post administration of the test sample/vehicle. Blood glucose profile of each rat was again determined at 30, 60, 90 and 120 min post administration of sucrose by glucometer. Food but not water was withheld from the cages during the course of experimentation. Quantitative glucose tolerance of each animal was calculated by Area Under Curve (AUC) method (Prism Software). Comparing the AUC of experimental and control groups determined the percentage antihyperglycemic activity. Statistical comparison was made by Dunnett's test.

[1] = test system: streptozotocin-induced diabetic rats; test: Sucrose-challenged streptozotocin-induced diabetic rats (STZ-S); type: in vivo, rat; conditions: 100 mg/kg oral
Description: Male albino rats of Sprague Dawley strain of body weight 160+20 g were selected for this study. Streptozotocin (Sigma, USA) was dissolved in 100 mM citrate buffer pH 4.5 and calculated amount of the fresh solution was injected to overnight fasted rats (45 mg/kg) intraperitoneally. Blood glucose level was checked 48 h later by glucostrips and animals showing blood glucose values between 144 to 270 mg/dl (8 to 15 mM) were included in the experiment and termed diabetic. The diabetic animals were divided into groups consisting of five to six animals in each group. Animals of experimental groups were administered suspension of the desired test samples orally (made in 1.0% gum acacia) at a dose of 100-mg/kg-body weight. Animals of control group were given an equal amount of 1.0% gum acacia. A sucrose load of 2.5-g/kg body weight was given after 30 minutes of compound administration. After 30 minutes of post sucrose load blood glucose level was again checked by glucostrips at 30, 60, 90, 120, 180, 240, 300 min and at 24 h, respectively. Animals not found diabetic after 24 hours post treatment of the test sample were not considered and omitted from the calculations and termed as non-responders. […] Food but not water was withheld from the cages during the experimentation. Comparing the AUC of experimental and control groups determined the percent antihyperglycemic activity. Statistical comparison between groups was made by Student's ‘t’ test.
As depicted in the FIGURE, a dose response curve of 34 was obtained by administering different doses of test compound to streptozotocin-induced diabetic rats (Table 6). […]

[2] = test system: triton WR-1339 induced hyperlipidemic rats; test: Triton model, antidyslipidemic activity; type: in vivo, rat; conditions: Rattus norvegicus, 100 mg/kg oral, plasma after 18 h
Description: Male Charles foster rats weighing 200-225 g were divided into control, hyperlipidemic and hyperlipidemic plus drug treated groups containing six animals in each group. Hyperlipidemia was induced by administration of triton WR-1339 (200 mg/kg i.p.). All animals were maintained on a special pellet diet and water ad libitum. Compounds and standard drug were macerated with 0.2% aqueous gum acacia suspension. The suspension was fed orally at the dose of 100 mg/kg simultaneously with triton in drug treated group. The animals of control group received the same amount of gum acacia by similar route of administration. At the end of the experiment, after 18 h, blood was withdrawn from retro orbital plexus and plasma was used for the assay of total cholesterol, phospholipid and triglycerides.
Cholesterol was estimated using the kit provided by Roche Diagnostics. Cholesterol esters are enzymatically hydrolyzed by cholesterol esterase (CE) to cholesterol and free fatty acids. Free cholesterol, including that originally present, is then oxidized by cholesterol oxidase (CO) to cholest-4-en-3-one and hydrogen peroxide. The hydrogen peroxide combines with hydroxy benzoic acid (HBA) and 4-aminoantipyrine (4AAA) in the presence of peroxidase (POD) to form a chromophore (quinoneimine dye), which may be quantitated at 500-505 nm. The intensity of red colour formed is directly proportional to the concentration of total cholesterol in the specimen and measured spectrophotometrically (Searcy, C. L. Diagnostic Biochemistry, 1969, McGraw Hill, New York; Ellefson, R. D.; Caraway, W. T. Fundamentals of clinical chemistry, 1976, Ed Tietz N W, 506-515.)
Triglycerides were estimated using the kit provided by Roche Diagnostics. Lipoprotein lipase hydrolyses triglycerides to yield glycerol and fatty acids. Glycerol kinase converts glycerol to glycerol-3-phosphate, which is oxidized by glycerol phosphate oxidase to dihydroxy acetone phosphate and hydrogen peroxide. In the presence of peroxidase, hydrogen peroxide oxidatively couples with 4-aminoantipyrine and 4-chloro phenol to produce red quinonimine dye. The intensity of red colour formed is directly proportional to the concentration of triglycerides in the specimen and is measured by photometrically (Wahlefeld, A. W.; Bergmeyer, H. U. Ed. Methods of enzymatic analysis, 2nd English edition, New York, N.Y., Academic press inc, 1831-1840.).
Serum (0.2 mL) and perchloric acid (1.0 mL) was digested at 180° C. for 1-1.5 h till the solution became colorless. The liberated inorganic phosphate (Pi) was measured by the method of Fiske and Subbarow (Fiske, C. H.; Subbarow, V. J. Biol. Chem. 1925, 66, 375.). 1 mL of 2.5% ammonium molybdate (prepared in 5 N sulphuric acid) and 0.5 mL reducing agent (4-amino naphthol sulphonic acid, 0.2%), sodium metabisulphite (2.4% w/v in distilled water) was added to the above tubes and mixed well. The reaction mixture was […] with 2.5 mL of triple distilled water and kept at 60° C. in water bath for 20 min. For standard, an appropriate amount of potassium dihydrogen phosphate dissolved in triple distilled water containing 2-10 μg phosphorous (Pi) was run simultaneously with the experiment tubes. The optical density of the blue colour was recorded at 620 nm against reagent blank. The values of Pi were converted into phospholipid by multiplying with 25 (a constant calibrated from Pi value of lecithin).

[3] = phospholipid, read-out: % Fall in lipid levels (Triton model) PL
[4] = total cholesterol, read-out: % Fall in lipid levels (Triton model) TC
[5] = triglycerides, read-out: % Fall in lipid levels (Triton model) TG

melting point | Structure (SMILES) | inhibition in vivo at 100 mg/kg (sucrose loaded rat) [%] | % Fall in blood glucose levels, STZ-S 5 h [1] | % Fall in blood glucose levels, STZ-S 24 h [1] | inhibition in vivo at 100 mg/kg [2, 3] [%] | inhibition in vivo at 100 mg/kg [2, 4] [%] | inhibition in vivo at 100 mg/kg [2, 5] [%] | % Fall in blood glucose levels, SLM (sucrose loaded rat)
168 to 170 °C | O=c1cc(-c2cc(OCc3ccccc3)cc(OCc3ccccc3)c2)oc2cc(OCC(O)CN3CCN(c4ccccc4)CC3)ccc12 (stereo not shown) [Compound 36, 3′,5′-Dibenzyloxy-7-[2-hydroxy-3-(4-phenylpiperazin-1-yl)-propoxy]-flavone] | 34.6 | NIL | 2.46% | 21 | 24 | 17 | –
153 °C (dec.) | CC(C)(C)NCC(O)COc1ccc2c(=O)cc(-c3cc(O)cc(O)c3)oc2c1 (stereo not shown) [Compound 48, 7-(3-tert-Butylamino-2-hydroxy-propoxy)-3′,5′-dihydroxy-flavone] | 19.1 | NIL | NIL | 4 | 17 | 16 | –
156 to 157 °C | CC(C)(C)NCC(O)COc1ccc2oc(-c3ccc(OCc4ccccc4)c(OCc4ccccc4)c3)cc(=O)c2c1 (stereo not shown) [Compound 39, 6-(3-tert-Butylamino-2-hydroxy-propoxy)-3′,4′-dibenzyloxy-flavone] | 21.8 | 14.9% | 0.36% | 12 | 21 | 17 | –
106 to 107 °C | COc1cc(-c2cc(=O)c3ccc(OCC(O)CNC(C)C)cc3o2)cc(OC)c1OC (stereo not shown) [Compound 41, 7-(2-Hydroxy-3-iso-propylamino-propoxy)-3′,4′,5′-trimethoxy-flavone] | 20.7 | 17.4% | 19.1% | 16 | 18 | 19 | –
159 to 161 °C | CC(C)(C)NCC(O)COc1ccc2c(=O)cc(-c3ccc(OCc4ccccc4)c(OCc4ccccc4)c3)oc2c1 (stereo not shown) [Compound 37, 7-(3-tert-Butylamino-2-hydroxy-propoxy)-3′,4′-dibenzyloxy-flavone] | – | – | – | 12 | 23 | 16 | NIL
177 to 179 °C | CC(C)NCC(O)COc1ccc2c(=O)cc(-c3ccc(OCc4ccccc4)c(OCc4ccccc4)c3)oc2c1 (stereo not shown) [Compound 38, 3′,4′-Dibenzyloxy-7-(2-hydroxy-3-iso-propylamino-propoxy)-flavone] | – | – | – | 5 | 16 | 14 | NIL
170 to 171 °C | COc1cc(-c2cc(=O)c3ccc(OCC(O)CN4CCN(c5ccccc5)CC4)cc3o2)cc(OC)c1OC (stereo not shown) [Compound 42, 7-[2-Hydroxy-3-(4-phenylpiperazin-1-yl)-propoxy]-3′,4′,5′-trimethoxy-flavone] | 5.64 | – | – | 8 | 19 | 23 | –
